Data reported in patent US6857485B2, “Shale hydration inhibition agent and method of use” (M-I LLC, priority 2000, dated 2005).

Key:
[1] = Hot-Rolling Dispersion in fresh water, Foss Eikeland shale; details: 350 ml freshwater with 10.5 g shale inhibitor, hot rolled 16 hours at 150° F.
Description: (§1) Synthesis of the amine salt was carried out as previously disclosed above. Fresh water was utilized as the base fluid in this example.
(§2) A hot-rolling dispersion test was conducted using samples of Oxford shale, Foss Eikeland shale and actual shale drilling cutting recovered from a well in the field. […] The resulting mixture was hot rolled for 16 hours at 150° F. After rolling, the remaining shale cuttings were screened from the base fluid using a US 20 mesh screen and washed clean of base fluid with 10% potassium chloride aqueous solution. After drying the samples, they were weighed and the percentage of recovered shale was calculated.

[2] = Viscosity of product from neutralization of Jeffamine D-230 with acids; assay type: physicochemical; details: for Viscosity (centipoises) at pH 9.5: Jeffamine D-230 neutralized with the acid to pH 9.5; for Viscosity (centipoises) at pH 10.5: Jeffamine D-230 neutralized with the acid to pH 10.5
Text: Synthesis of the salt: Synthesis of the salts from the free amine compounds is simple and should be well known and within the skill of a person of ordinary skill in the art. In one method the salt is formed in situ within a fully formulated mud by the addition of the acid directly to the mud. Alternatively the amine compound may be neutralized first with acid and then the salt added to the mud. When conducting the neutralization reaction between the amine compound and the acid compound either concentrated or diluted acid may be used. When concentrated acid is utilized, typically a slurry of the salt is formed. When the acid is diluted in water, an aqueous solution containing the amine salt is formed.

[3] = Hot-Rolling Dispersion in fresh water, field cuttings; details: 350 ml freshwater with 10.5 g shale inhibitor, hot rolled 16 hours at 150° F.
Description: as §1, §2

[4] = Hot-Rolling Dispersion in fresh water, Oxford shale; details: 350 ml freshwater with 10.5 g shale inhibitor, hot rolled 16 hours at 150° F.
Description: as §1, §2

[5] = Bentonite Hydration Study, 50 ppb bentonite (Example 6)
Description: In this procedure a pint jar was filled with one barrel equivalent of tap water and test sample, adjusted the pH to at least 9 and treated with a 50 ppb portion M-I GEL (bentonite) at a medium shear rate. After stirring for 30 minutes, the rheologies were measured and then the samples were heat aged overnight at 150° F. After the samples were cooled their rheologies and pHs were recorded. The following data is representative of how the rheologies are affected by the addition of the 50 ppb of bentonite in tap water treated with the experimental inhibitors.

[6] = Bentonite inhibition by daily addition of bentonite (Example 7); details: for 300 rpm Rheologies / 600 rpm Rheologies / 3 rpm Rheologies / 10 Min Gels / Plastic Viscosity / Yield Point: 10 ppb inhibitor; for 300 rpm Rheologies / 600 rpm Rheologies: Heat Aged (150° F.); for 3 rpm Rheologies / 10 Min Gels / Plastic Viscosity / Yield Point: Heat Aged (150°)
Description: This test procedure uses pint jars that are filled with one barrel equivalent of tap water and 10 ppb of a shale inhibitor. Tap water was used as a control sample. All samples were adjusted to at least a pH of 9 and treated with a 10 ppb portion of M-I GEL (bentonite) at a medium shear rate. After stirring for 30 minutes, the rheologies were measured and then the samples were heat aged overnight at 150° F. After the samples were cooled their rheologies and pHs were recorded. All samples were then adjusted to at least a pH 9 before treating them again with bentonite as previously described. This procedure was carried out for each sample until all were too thick to measure.

CC(=O)O [Acetic acid]
% recovered [1]: 72.4%
Viscosity (centipoises) at pH 9.5 [2]: 1425 cps
Viscosity (centipoises) at pH 10.5 [2]: 33 cps
% recovered [3]: 47.6%
% recovered [4]: 88.0%

O=P(O)(O)O [Phosphoric acid]
% recovered [1]: 69.1%
Viscosity (centipoises) at pH 9.5 [2]: slurry
Viscosity (centipoises) at pH 10.5 [2]: slurry
% recovered [3]: 42.6%
% recovered [4]: 87.8%

Citric acid
% recovered [1]: 78.0%
Viscosity (centipoises) at pH 9.5 [2]: 2000 cps
Viscosity (centipoises) at pH 10.5 [2]: 180 cps
% recovered [4]: 87.0%

O=[N+]([O-])O [Nitric acid]
% recovered [1]: 69.1%
Viscosity (centipoises) at pH 9.5 [2]: 610 cps
Viscosity (centipoises) at pH 10.5 [2]: 120 cps
% recovered [3]: 45.7%
% recovered [4]: 87.6%

COCCOC(C)COC(C)COC(C)COC(C)COC(C)COC(C)COC(C)COC(C)COCC(C)N (stereo not shown) [Jeffamine M-600]
shale hydration inhibition, judgement [5]: performed well as shale hydration inhibitors
Gels 10 sec. ([5]; Heat Aged Rheology (150° F.)): 1 lbs/100 ft^2
Gels 10 min. ([5]; Heat Aged Rheology (150° F.)): 1 lbs/100 ft^2
PV ([5]; Heat Aged Rheology (150° F.)): 16 CPS
Rheology 3 RPM ([5]; Heat Aged Rheology (150° F.)): 1
Rheology 6 RPM ([5]; Heat Aged Rheology (150° F.)): 1
Rheology 100 RPM ([5]; Heat Aged Rheology (150° F.)): 10
Rheology 200 RPM ([5]; Heat Aged Rheology (150° F.)): 17
Rheology 300 RPM ([5]; Heat Aged Rheology (150° F.)): 24
Rheology 600 RPM ([5]; Heat Aged Rheology (150° F.)): 40
YP ([5]; Heat Aged Rheology (150° F.)): 8 lbs/100 ft^2
pH ([5]; Heat Aged Rheology (150° F.)): 11.1
Gels 10 sec. ([5]; Initial Rheology): 11 lbs/100 ft^2
Gels 10 min. ([5]; Initial Rheology): 25 lbs/100 ft^2
PV ([5]; Initial Rheology): 19 CPS
Rheology 3 RPM ([5]; Initial Rheology): 4
Rheology 6 RPM ([5]; Initial Rheology): 5
Rheology 100 RPM ([5]; Initial Rheology): 17
Rheology 200 RPM ([5]; Initial Rheology): 25
Rheology 300 RPM ([5]; Initial Rheology): 33
Rheology 600 RPM ([5]; Initial Rheology): 52
YP ([5]; Initial Rheology): 14 lbs/100 ft^2
pH ([5]; Initial Rheology): 11.1
300 rpm Rheologies ([6]; Bentonite 30 lb/bbl): 9
600 rpm Rheologies ([6]; Bentonite 30 lb/bbl): 18
3 rpm Rheologies ([6]; Bentonite 30 lb/bbl): 0
10 Min Gels ([6]; Bentonite 30 lb/bbl): 0 lbs/100 ft^2
Plastic Viscosity ([6]; Bentonite 30 lb/bbl): 9 CPS
Yield Point ([6]; Bentonite 30 lb/bbl): 1 lbs/100 ft^2
300 rpm Rheologies ([6]; Bentonite 40 lb/bbl): 18
600 rpm Rheologies ([6]; Bentonite 40 lb/bbl): 35
3 rpm Rheologies ([6]; Bentonite 40 lb/bbl): 0
10 Min Gels ([6]; Bentonite 40 lb/bbl): 0 lbs/100 ft^2
Plastic Viscosity ([6]; Bentonite 40 lb/bbl): 16 CPS
Yield Point ([6]; Bentonite 40 lb/bbl): 1 lbs/100 ft^2
300 rpm Rheologies ([6]; Bentonite 50 lb/bbl): 41
600 rpm Rheologies ([6]; Bentonite 50 lb/bbl): 74
3 rpm Rheologies ([6]; Bentonite 50 lb/bbl): 0
10 Min Gels ([6]; Bentonite 50 lb/bbl): 0 lbs/100 ft^2
Plastic Viscosity ([6]; Bentonite 50 lb/bbl): 33 CPS
Yield Point ([6]; Bentonite 50 lb/bbl): 8 lbs/100 ft^2
300 rpm Rheologies ([6]; Bentonite 60 lb/bbl): 71
600 rpm Rheologies ([6]; Bentonite 60 lb/bbl): 146
3 rpm Rheologies ([6]; Bentonite 60 lb/bbl): 0
10 Min Gels ([6]; Bentonite 60 lb/bbl): 0 lbs/100 ft^2
Plastic Viscosity ([6]; Bentonite 60 lb/bbl): 75 CPS
Yield Point ([6]; Bentonite 60 lb/bbl): 4 lbs/100 ft^2
300 rpm Rheologies ([6]; Bentonite 70 lb/bbl): 121
600 rpm Rheologies ([6]; Bentonite 70 lb/bbl): 259
3 rpm Rheologies ([6]; Bentonite 70 lb/bbl): 0
10 Min Gels ([6]; Bentonite 70 lb/bbl): 3 lbs/100 ft^2
Plastic Viscosity ([6]; Bentonite 70 lb/bbl): 138 CPS
Yield Point ([6]; Bentonite 70 lb/bbl): 17 lbs/100 ft^2
shale hydration inhibition, judgement ([6]; daily addition of bentonite): performs as a shale hydration inhibitor
